Several values for one entry are separate records, joined by “and”; a condition that tells them apart may be missing. Equal values may be shown once. Toxic doses and inconclusive results are not listed. How the source made its calls: active means survival T/C of 150% or more; inactive means T/C below 125% in these data.
Test system: P388 leukemia ip, CD2F1 mice, survival T/C
Assay: NCI In Vivo Anticancer Drug Screen. Data for tumor model P388 Leukemia (intraperitoneal) in CD2F1 (CDF1) mice
Settings: endpoint: median survival time, higher = longer survival
How it was run: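 Mice carrying the transplanted tumor received test compound or vehicle. Survival was recorded in each group, and the value is the treated-group measurement divided by that of the vehicle-treated control group.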

[1] = dose: 50.0 mg/kg/injection, schedule: Q01DX005 (ip), vehicle: Klucel (hydroxypropylcellulose) (HPC)
[2] = dose: 100.0 mg/kg/injection, schedule: Q01DX005 (ip), vehicle: Klucel (hydroxypropylcellulose) (HPC)
[3] = dose: 200.0 mg/kg/injection, schedule: Q01DX005 (ip), vehicle: Klucel (hydroxypropylcellulose) (HPC)
[4] = dose: 60.0 mg/kg/injection, schedule: Q01DX005 (ip), vehicle: Klucel (hydroxypropylcellulose) (HPC)
[5] = dose: 120.0 mg/kg/injection, schedule: Q01DX005 (ip), vehicle: Klucel (hydroxypropylcellulose) (HPC)
[6] = dose: 240.0 mg/kg/injection, schedule: Q01DX005 (ip), vehicle: Klucel (hydroxypropylcellulose) (HPC)
[7] = dose: 50.0 mg/kg/injection, schedule: Q01DX005 (ip), vehicle: saline
[8] = dose: 100.0 mg/kg/injection, schedule: Q01DX005 (ip), vehicle: saline
[9] = dose: 200.0 mg/kg/injection, schedule: Q01DX005 (ip), vehicle: saline
[10] = dose: 60.0 mg/kg/injection, schedule: Q01DX005 (ip), vehicle: saline with Tween-80
[11] = dose: 120.0 mg/kg/injection, schedule: Q01DX005 (ip), vehicle: saline with Tween-80
[12] = dose: 240.0 mg/kg/injection, schedule: Q01DX005 (ip), vehicle: saline with Tween-80
[13] = dose: 50.0 mg/kg/injection, schedule: Q01DX005 (ip), vehicle: saline with Tween-80

Measured: T/C

C=Cc1ccc2cccc(O)c2n1
inactive: dose: 25.0 mg/kg/injection, schedule: Q01DX001 (ip), vehicle: saline with Tween-80 106 % of control | dose: 50.0 mg/kg/injection, schedule: Q01DX001 (ip), vehicle: saline with Tween-80 106 % of control | dose: 100.0 mg/kg/injection, schedule: Q01DX001 (ip), vehicle: saline with Tween-80 89 % of control and 94 % of control

N#CCCn1ncc(C#N)c1N
inactive: [1] 99 % of control | [2] 107 % of control | [3] 90 % of control

CCCC(CCC)=NCCN=C(CCC)CCC
inactive: dose: 50.0 mg/kg/injection, schedule: Q01DX009 (ip), vehicle: saline 100 % of control | dose: 50.0 mg/kg/injection, schedule: Q04DX003 (ip), vehicle: saline 95 % of control | dose: 100.0 mg/kg/injection, schedule: Q01DX009 (ip), vehicle: saline 100 % of control | dose: 100.0 mg/kg/injection, schedule: Q04DX003 (ip), vehicle: saline 95 % of control | dose: 200.0 mg/kg/injection, schedule: Q01DX009 (ip), vehicle: saline 104 % of control | dose: 200.0 mg/kg/injection, schedule: Q04DX003 (ip), vehicle: saline 91 % of control

CC(=O)Nc1ccc2c(=O)n(O)c(=O)[nH]c2c1
inactive: [1] 102 % of control | [2] 103 % of control | [3] 106 % of control

O=C1C2=C(Nc3cc([N+](=O)[O-])ccc3N2)OC1c1ccc(C2OC3=C(Nc4ccc([N+](=O)[O-])cc4N3)C2=O)cc1 (stereo unspecified)
inactive: [4] 102 % of control | [5] 96 % of control | [6] 99 % of control

COC(=O)C1C(CO)ON2CCC(OC)(OC)C12 (stereo unspecified)
inactive: [7] 99 % of control | [8] 92 % of control | [9] 96 % of control

CC(C)=NOCCC#N
inactive: dose: 60.0 mg/kg/injection, schedule: Q01DX005 (ip), vehicle: saline 99 % of control | dose: 120.0 mg/kg/injection, schedule: Q01DX005 (ip), vehicle: saline 99 % of control | dose: 240.0 mg/kg/injection, schedule: Q01DX005 (ip), vehicle: saline 101 % of control

CN(C)c1ccc(Cc2c[nH]c3ccccc3c2=O)cc1
inactive: [10] 94 % of control | [11] 92 % of control | [12] 95 % of control

CNCC(=O)Nc1ccc2c(c1)C(=O)c1ccc(NC(=O)CNC)cc1C2=O
inactive: dose: 94.75 mg/kg/injection, schedule: Q01DX001 (ip), vehicle: suspension in saline 110 % of control

CCOC(C)(OCC)N(C)C
inactive: [7] 101 % of control | [8] 108 % of control | [9] 111 % of control

COc1ccc(C2c3cc4c(cc3OC3(N5CCCC5)CCCCC23)OCO4)cc1 (stereo unspecified)
inactive: [4] 99 % of control | [5] 94 % of control | [6] 88 % of control

Nc1ncnc2c1ncn2C1SC(CO)C(O)C1O (stereo unspecified)
inactive: dose: 12.5 mg/kg/injection, schedule: Q01DX005 (ip), vehicle: Klucel (hydroxypropylcellulose) (HPC) 92 % of control | dose: 25.0 mg/kg/injection, schedule: Q01DX005 (ip), vehicle: Klucel (hydroxypropylcellulose) (HPC) 100 % of control and 92 % of control | [1] 99 % of control and 96 % of control | [2] 104 % of control and 100 % of control | [3] 101 % of control and 92 % of control

O=S(=O)(Nc1ccccc1Cl)c1ccc(F)cc1
inactive: [10] 96 % of control | [11] 104 % of control | [12] 100 % of control

CC(N)(CCC(=O)O)C(=O)O (stereo unspecified)
inactive: dose: 50.0 mg/kg/injection, schedule: Q01DX009 (ip), vehicle: Klucel (hydroxypropylcellulose) (HPC) 98 % of control | dose: 100.0 mg/kg/injection, schedule: Q01DX009 (ip), vehicle: Klucel (hydroxypropylcellulose) (HPC) 96 % of control | dose: 200.0 mg/kg/injection, schedule: Q01DX009 (ip), vehicle: Klucel (hydroxypropylcellulose) (HPC) 97 % of control | dose: 400.0 mg/kg/injection, schedule: Q01DX009 (ip), vehicle: Klucel (hydroxypropylcellulose) (HPC) 103 % of control

ClC(Cl)Cl
inactive: dose: 0.25 % in 0.5 ml injection vol, schedule: Q01DX009 (ip), vehicle: water 100 % of control | dose: 0.5 % in 0.5 ml injection vol, schedule: Q01DX009 (ip), vehicle: water 96 % of control | dose: 1.0 % in 0.5 ml injection vol, schedule: Q01DX009 (ip), vehicle: water 100 % of control

Brc1ccc(-c2cnc3nc4[nH]c5ccccc5c4nn23)cc1
inactive: dose: 12.5 mg/kg/injection, schedule: Q01DX005 (ip), vehicle: saline with Tween-80 101 % of control | dose: 25.0 mg/kg/injection, schedule: Q01DX005 (ip), vehicle: saline with Tween-80 93 % of control | [13] 89 % of control and 91 % of control

CCOc1ccc(Nc2ccc(/C(=C3\C=CC(=[N+](CC)Cc4cccc(S(=O)(=O)O)c4)C=C3C)c3ccc(N(CC)Cc4cccc(S(=O)(=O)O)c4)cc3C)cc2)cc1
inactive: dose: 50.0 mg/kg/injection, schedule: Q01DX009 (ip), vehicle: saline with Tween-80 98 % of control | dose: 100.0 mg/kg/injection, schedule: Q01DX009 (ip), vehicle: saline with Tween-80 97 % of control

NC(CCS)C(=O)O (stereo unspecified)
inactive: [13] 90 % of control | dose: 100.0 mg/kg/injection, schedule: Q01DX005 (ip), vehicle: saline with Tween-80 92 % of control

— PubChem BioAssay AID330 (DTP/NCI, 2004)
